Data as given in patent US12461089B2, “Olfactory receptor involved in the perception of musk fragrance and the use thereof” (ChemoSensoryX Biosciences SA, priority 2017, dated 2025).
Where two headings read alike, the source gives them in different places.

Columns and labels:
Format in all cases: cell-based
OR5A2_variant 1 = biological target: T1, OR5A2_variant 1 (Homo sapiens, UniProt Q8NGI9); test: Luciferase reporter concentration-response analysis on OR5A2_variant 1; details: for activation of OR5A2 (OR5A2_variant 1), concentration-response: CRE-luciferase, semi-logarithmic serial dilutions, empty vector pEFIBRHO as control
T1 construct: expressed in transfected cells; host or cells: HEK293T-RTP1A1/RTP2
T1 sequence (Q8NGI9 1-324): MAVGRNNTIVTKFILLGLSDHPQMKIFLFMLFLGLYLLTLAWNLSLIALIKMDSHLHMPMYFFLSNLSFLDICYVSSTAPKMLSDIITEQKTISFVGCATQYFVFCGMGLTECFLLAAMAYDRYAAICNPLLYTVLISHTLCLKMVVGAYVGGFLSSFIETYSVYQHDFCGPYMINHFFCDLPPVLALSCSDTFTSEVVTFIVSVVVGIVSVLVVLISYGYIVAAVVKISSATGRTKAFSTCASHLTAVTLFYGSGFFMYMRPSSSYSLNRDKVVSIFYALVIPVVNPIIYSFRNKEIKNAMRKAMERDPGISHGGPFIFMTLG

OR5AN1 = biological target: T2, OR5AN1 (Homo sapiens, UniProt Q8NGI8, E89G); test: Luciferase reporter concentration-response analysis on OR5AN1
T2 construct: expressed in transfected cells; host or cells: HEK293T-RTP1A1/RTP2
T2 sequence (Q8NGI8 1-311 E89G): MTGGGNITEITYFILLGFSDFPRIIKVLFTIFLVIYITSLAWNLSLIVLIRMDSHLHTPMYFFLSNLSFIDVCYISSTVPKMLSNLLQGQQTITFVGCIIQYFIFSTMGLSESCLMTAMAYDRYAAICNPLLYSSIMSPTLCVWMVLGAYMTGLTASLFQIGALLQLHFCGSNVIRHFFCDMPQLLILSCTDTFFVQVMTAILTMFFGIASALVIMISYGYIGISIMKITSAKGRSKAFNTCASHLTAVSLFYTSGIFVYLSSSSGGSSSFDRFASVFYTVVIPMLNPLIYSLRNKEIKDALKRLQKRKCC

chimeric OR5A2_variant 1 = biological target: T3, chimeric OR5A2_variant 1 (Homo sapiens, UniProt Q8NGI9, F293L/H55R/I289L/M58T); test: Luciferase reporter concentration-response analysis on chimeric OR5A2_variant 1; details: CRE-luciferase; empty vector pEFIBRHO as control
T3 construct: expressed in transfected cells; host or cells: HEK293T-RTP1A1/RTP2
T3 sequence (Q8NGI9 with tags, fused parts or gaps H55R/M58T/I289L/F293L): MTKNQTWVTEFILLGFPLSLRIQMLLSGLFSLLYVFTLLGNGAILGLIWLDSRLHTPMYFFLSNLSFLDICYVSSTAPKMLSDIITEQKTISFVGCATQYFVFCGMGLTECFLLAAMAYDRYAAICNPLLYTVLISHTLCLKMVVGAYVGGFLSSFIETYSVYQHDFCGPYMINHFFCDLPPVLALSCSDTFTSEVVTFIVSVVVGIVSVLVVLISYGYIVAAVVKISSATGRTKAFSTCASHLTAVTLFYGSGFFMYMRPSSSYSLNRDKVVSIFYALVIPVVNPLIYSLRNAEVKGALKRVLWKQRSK

[1] = concentration-response analysis, luciferase reporter, values given as negative (log) numbers, read-out: calculated EC50, OR5A2 (converted)
[2] = concentration-response analysis, luciferase reporter, values given as negative (log) numbers, Non Active = no activation after testing, read-out: calculated EC50, OR5AN1 (converted)

SMILES | EC50 (OR5A2_variant 1) | activation of OR5A2 (OR5A2_variant 1), concentration-response (OR5A2_variant 1) | EC50 (OR5AN1) | activation of chimeric OR5A2_variant 1, concentration-response (chimeric OR5A2_variant 1) | EC50 (OR5A2_variant 1; [1]) | EC50 (OR5AN1; [2])
Cc1c([N+](=O)[O-])c(C)c([N+](=O)[O-])c(C(C)(C)C)c1[N+](=O)[O-] [Musk Xylene, 1-tert-butyl-3,5-dimethyl-2,4,6-trinitrobenzene] | 1.86 µM | shows dose response curves | 0.661 µM | shows dose response curves | – | –
O=C1CCC/C=C\CCCCCCCCCC1 [Velvione] | – | shows dose response curves | – | shows dose response curves | 28.8 µM | 49 µM
CC(=O)c1c(C)c([N+](=O)[O-])c(C(C)(C)C)c([N+](=O)[O-])c1C [Musk Ketone, 4-tert-butyl-2,6-dimethyl-3,5-dinitroacetophenone] | – | shows dose response curves | – | shows dose response curves | 107 µM | 0.288 µM
